For test [1] the following is noted: cited from earlier work.
The subject of test [2] is 3T3 or BPAE cells. The test can be described thus: Intracellular products of tracers by TLC and HPLC (Example 67). In kind it is cell-based. The settings on record: 5 μM, 1 hr, 37° C. How it is done:
Reaction mixtures with and without GST using Compound 1 as the substrate, are prepared as described in Example 48. The solutions are mixed overnight with three volumes of ethyl acetate followed by centrifugation at 15,000×g for 30 min to separate the organic and aqueous layers. HPLC analysis using a Rainin HPLC equipped with a C18, 5 μm, 100 Å, 4.6×250 mm MICROSORB-MV reverse phase column. Products are separated in 30 min with a gradient of 5% to 95% solvent B in Solvent A at a flow rate of 1 mL/min, where solvent A is 0.1M triethylammonium acetate, pH 7.0, and solvent B is acetonitrile (see FIG. 1). Products are detected by reading the absorbance at 500 nm. Peaks are identified and, if desired, quantitated by comparing retention times with authentic samples of the glutathione adduct of Compound 45 (Example 45).
(§1) Cultures of either 3T3 or BPAE cells are treated with 5 μM solutions of either Compound 4,5-(pentachlorobenzoylamino)fluorescein diacetate, 5-pentafluorobenzenesulfonylamino)fluorescein diacetate, or 5-chloromethylfluorescein diacetate (CMFDA, Molecular Probes, Inc.) for 1 hr at 37° C. The cells are spun, resuspended in distilled water and lysed by repeated freezing and thawing. 20 μL of the cell lysate supernatant is diluted with 30 μL of SDS-PAGE sample buffer, containing β-mercaptoethanol. The cell pellets are dispersed in 50 μL of water. 20 μL of each sample is added to 30 μL of the same sample buffer. The samples are heated at 95° C. for 5 min. and loaded on 4-20% polyacrylamide gradient minigels. At the completion of the run the gels are observed with UV excitation.
Alternatively, the above samples are analyzed by TLC and by HPLC, as described in Examples 48 and 52. […] Coinjection with authentic Compound 1 confirms the identity of the substrate peak and coinjection with the authentic Compound 1-GSH adduct (Example 45) confirms the identify of the other fluorescent product.

Test [3] deals with Bovine pulmonary aorta endothelial cells (BPAEC). The test can be described thus: Retention of fluorescence in fixed cells (Example 66). In kind it is cell-based. As to conditions: 3.7% formaldehyde 30 minutes, 0.2% Triton X-100 30 minutes.
The test system of another test is β-galactosidase. The test can be described thus: Reactivity with thiol groups of proteins (Example 51). The format is biochemical. How it is done: To test the specificity of the Compound 1 reaction with GSH versus thiol-containing proteins, β-galactosidase (a protein that has several free thiols) is dissolved at 5 mg/mL in deoxygenated 0.1M phosphate, 0.1M NaCl, pH 7.5, and reacted under anaerobic conditions with 5-(pentafluorobenzoylamino)fluorescein diacetate (Compound 4, Example 3) or Compound 1 dissolved at 10 mg/mL in DMSO at a molar ratio of the reagent to protein of 15. This assay is performed both in the presence and absence of 30 mM N-ethyl maleimide (NEM) as an effective thiol-blocking reagent. The reactions are incubated at room temperature for 1 hour, stopped by the addition of hydroxylamine, pH 9 to a final concentration of 0.15M, and incubated for 2 more hours to hydrolyze the acetate groups. […] Consequently, no reaction of either Compound 4 or Compound 1 with β-galactosidase is detected under the described conditions.

The test system of test [4] is Bovine pulmonary aorta endothelial cells (BPAEC). The test can be described thus: Glutathione adduct formation and fate of substrate in cultured animal cells, HPLC (Example 66). The format is cell-based. Here is the method:
The solutions are mixed overnight with three volumes of ethyl acetate followed by centrifugation at 15,000×g for 30 min to separate the organic and aqueous layers. HPLC analysis using a Rainin HPLC equipped with a C18, 5 μm, 100 Å, 4.6×250 mm MICROSORB-MV reverse phase column. […] Products are detected by reading the absorbance at 500 nm.
Bovine pulmonary aorta endothelial cells (BPAEC) are removed from flasks by trypsinization and washed into fresh complete growth medium to yield 10^6 cells/mL. […] Other aliquots of the cell suspension are loaded with the same substrates for 1 hour, rinsed into fresh complete medium, then incubated in the absence of substrate for an additional 3 hr at 37° C. to look for retention and efflux of fluorescent products. At the end of each incubation period the cells are removed by centrifugation and the supernate is retained. The cell pellets are resuspended in 1 mL of E-Pure water and subjected to three freeze-thaw cycles (-80° C. to 37° C.).

The test system of test [5] is 3T3 or BPAE cells. Nature of the test: Intracellular products of tracers by gel electrophoresis (Example 67). The format is cell-based. The settings on record: 5 μM, 1 hr, 37° C. Here is the method: as §1
A further test concerns NIH-3T3 cells. Nature of the test: Hydrolysis of esterase substrates and product retention in live cells, flow cytometry (Example 65). In kind it is cell-based. How it is done:
NIH-3T3 cells obtained from American Type Culture Collection Co., Rockville, Md. are used. They are grown in a humidified atmosphere of 5% CO2 in D-MEM supplemented with 10% bovine calf serum (BCS), 50 μg/mL gentamycin, 300 μg/mL L-glutamine and 10 mM HEPES, pH 7.4. Stock solutions of Compound 4 (Example 3), 10 mM in DMSO, and Compound 48 (Example 50), 5 mM in DMSO, are prepared. NIH-3T3 cells are trypsinized, washed with phosphate-buffered saline (PBS), pH 7.2 and resuspended in D-MEM with 10% BCS. To 1 mL of the cell suspension is added the dye stock solution to obtain a final dye concentration of 0.1 mM. Incubation is carried out at 37° C. for 30 minutes followed by incubation on ice for 30 minutes. Cells are centrifuged to form a pellet, the supernatant is discarded and the cells are washed twice with PBS, pH 7.2 and suspended in the same buffer. Cells are analyzed by flow cytometry using the Becton-Dickinson FACS Vantage flow cytometer. After analysis on the flow cytometer, cells are placed at 37° C. and analyzed by flow cytometry at frequent intervals over a period of 75 minutes. Cells stained with either of the dyes are at least 20-fold brighter than the autofluorescent control cells. Approximately 45% of Compound 4 and 35% of Compound 48 are still retained by the cells after 75 minutes of incubation at 37° C.

Where [6] appears, read: 15 min, 5 μM substrate, continuous.
The mark [7] stands for this setting: 1 hr, washed, then additional 3 hr at 37° C.
Setting [8] is: 4 hrs, 5 μM substrate, continuous.

The source of these data is US5773236A, “Assay for glutathiane transferase using polyhaloaryl-substituted reporter molecules” (Molecule Probes, Inc., priority 1997, dated 1998).

Entries after “also recorded” stand apart in the source; their conditions may differ.

Turning to `O=S1(=O)OC(c2cc(Br)c(O)c(Br)c2)(c2cc(Br)c(O)c(Br)c2)c2ccccc21` [tetrabromophenolsulfonephthalein], the “reaction with GSH in the presence of GST enzymes” value in test [1] is on record as “react specifically with GSH in the presence of GST enzymes”.
Turning to `CC(=O)Oc1ccc2c(c1)Oc1cc(OC(C)=O)ccc1C21OC(=O)c2cc(NC(=O)c3c(F)c(F)c(F)c(F)c3F)ccc21` [Compound 4, 5-(pentafluorobenzoylamino)fluorescein diacetate], in the test with 3T3 or BPAE cells [2] (HPLC), the “products by HPLC” value is listed as “two peaks”. In the test on 3T3 or BPAE cells [2] (TLC), the “products by TLC” value is “formation of a GSH adduct”. In addition, the “fluorescence after fixation and permeabilization” value in test [3] is “appreciably fluorescent”. Besides, in the test on β-galactosidase (molar ratio of reagent to protein 15), the “fluorescent proteins formed, gel electrophoresis” value is given as “no fluorescent proteins are formed”. The “reaction with β-galactosidase, TLC” value in the test on β-galactosidase (molar ratio of reagent to protein 15, pH 7.5, 1 hour, with and without 30 mM NEM) was “no reaction”. For the same compound, the “GSH adduct formation in cells” value in test [4] (5 μM substrate, 37° C., HPLC) was “hydrolyzed and conjugated to glutathione; also recorded: gives rise to glutathione (GSH) adducts”. In addition, in test [4] (setting [6]), the “EXTRACELLULAR Free dye” value is 3350 relative fluorescence units; the “EXTRACELLULAR Free dye, fraction of total fluorescence” value (shortened to “EXTRACELLULAR Free dye, fraction”) was 89.2%; the “EXTRACELLULAR GSH adduct” value is listed as 97 relative fluorescence units; the “EXTRACELLULAR GSH adduct, fraction of total fluorescence” value (from here on “EXTRACELLULAR GSH adduct, fraction”) was found to be 2.6%. In test [4] (setting [6]), the “INTRACELLULAR Free dye” value is given as 237 relative fluorescence units; the “INTRACELLULAR Free dye, fraction of total fluorescence” value (shortened to “INTRACELLULAR Free dye, fraction”) stood at 6.3%; the “INTRACELLULAR GSH adduct” value is 72 relative fluorescence units; the “INTRACELLULAR GSH adduct, fraction of total fluorescence” value (from here on “INTRACELLULAR GSH adduct, fraction”) is 1.9%. Besides, in test [4] (setting [7]), the “EXTRACELLULAR Free dye” value is listed as 361 relative fluorescence units; the “EXTRACELLULAR Free dye, fraction” value worked out at 85.3%; the “EXTRACELLULAR GSH adduct” value is 62 relative fluorescence units; the “EXTRACELLULAR GSH adduct, fraction” value was 14.7%. Further, in test [4] (setting [7]), the “INTRACELLULAR Free dye” value was < 1 relative fluorescence units; the “INTRACELLULAR Free dye, fraction” value was < 0.2%; the “INTRACELLULAR GSH adduct” value was < 1 relative fluorescence units; the “INTRACELLULAR GSH adduct, fraction” value was < 0.2%. Also, in test [4] (setting [8]), the “EXTRACELLULAR Free dye” value is 4498 relative fluorescence units; the “EXTRACELLULAR Free dye, fraction” value stood at 86.8%; the “EXTRACELLULAR GSH adduct” value was 642 relative fluorescence units; the “EXTRACELLULAR GSH adduct, fraction” value is 12.4%. Also, in test [4] (setting [8]), the “INTRACELLULAR Free dye” value is listed as 23 relative fluorescence units; the “INTRACELLULAR Free dye, fraction” value is recorded as 0.4%; the “INTRACELLULAR GSH adduct” value is 21 relative fluorescence units; the “INTRACELLULAR GSH adduct, fraction” value is reported as 0.4%. Also, in the test on 3T3 or BPAE cells [5], the “fluorescent bands on gel (region of the tracking dye)” value is reported as “Two closely spaced green fluorescent bands” and the “protein adduct bands on gel” value is “No other band corresponding to proteins is visible”. The “brightness versus autofluorescent control cells” value with NIH-3T3 cells (0.1 mM dye, 37° C., 30 minutes then on ice 30 minutes) is “at least 20 fold”. Moreover, the “dye retained by the cells” value in the test with NIH-3T3 cells (after 75 minutes of incubation at 37° C.) was “Approximately 45%”.
As for `O=[N+]([O-])c1ccc(Cl)c([N+](=O)[O-])c1` [1-Chloro-2,4-dinitrobenzene], in test [1], the “reaction with GSH in the presence of GST enzymes” value was “react specifically with GSH in the presence of GST enzymes”.
